Molecules are shown by their SMILES.

The target in this test is T1, human recombinant USP30 (Homo sapiens, UniProt Q70CQ3).
T1 construct: purchased Boston Biochem E-582
T1 sequence (Q70CQ3 1-517): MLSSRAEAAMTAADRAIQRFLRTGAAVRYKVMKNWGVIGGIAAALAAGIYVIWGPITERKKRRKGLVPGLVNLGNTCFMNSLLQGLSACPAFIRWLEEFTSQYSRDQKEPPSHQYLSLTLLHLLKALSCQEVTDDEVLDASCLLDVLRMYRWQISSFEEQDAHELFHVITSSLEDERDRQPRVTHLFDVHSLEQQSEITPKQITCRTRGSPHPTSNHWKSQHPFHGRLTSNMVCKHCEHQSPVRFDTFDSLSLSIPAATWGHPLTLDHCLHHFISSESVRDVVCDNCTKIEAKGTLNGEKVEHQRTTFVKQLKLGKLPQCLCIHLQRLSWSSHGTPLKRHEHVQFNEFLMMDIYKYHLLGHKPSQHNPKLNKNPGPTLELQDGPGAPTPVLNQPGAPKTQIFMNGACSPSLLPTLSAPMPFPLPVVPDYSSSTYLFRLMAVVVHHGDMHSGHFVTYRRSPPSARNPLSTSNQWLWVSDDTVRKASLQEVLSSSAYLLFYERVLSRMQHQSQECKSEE
Description: Ubiquitin-Rhodamine 110 Assay for USP30 Activity (USP30 biochemical assay). Particulars: IC50 ranges; 0.4 nM enzyme, 25 nM Ub-Rh110, 30 min preincubation, test concentration 25 μM to 1.3 nM. The protocol: Assay Example A: Description of Biochemical Assay: Ubiquitin-Rhodamine 110 Assay for USP30 Activity
The assay was performed in a final volume of 6 μL in assay buffer containing 20 mM Tris-HCl (pH 8.0, (1M Tris-HCl, pH 8.0 solution; Corning 46-031-CM)), 1 mM GSH (L-glutathione reduced, Sigma-Aldrich, G4251-100G), 0.03% BGG ([…], Sigma, G7516-25G), and 0.01% Triton X-100 (Sigma, T9284-10L). Nanoliter quantities of 10-point, 3-fold serial dilution in DMSO were pre-dispensed into 1536 assay plates (Corning, #3724BC) for a final test concentration of 25 μM to 1.3 nM, top to lowest dose, respectively. Concentration and incubation times were optimized for the maximal signal-to-background while maintaining initial velocity conditions at a fixed substrate concentration (<<Km). The final concentration of enzyme (human recombinant USP30, Boston Biochem, cat. #E-582) in the assay was 0.4 nM. Final substrate (Ub-R^h110; Ubiquitin-Rhodamine 110, UbiQ-126) concentration was 25 nM. 3 μL of 2× enzyme was added to assay plates (pre-stamped with compound), preincubated for 30 minutes and then treated with 3 μL of 2× substrate. Plates were read for fluorescence on the Envision (Perkin Elmer) or PheraSTAR (BMG) (excitation at 485 nm and emission at 535 nm) 5 times over the course of 11 minutes and the slope of this kinetic read used to normalize the raw data.
For all assay formats, data were reported as percent inhibition compared with control wells based on the following equation: % inh=1−((FLU−AveLow)/(AveHigh−AveLow)) where FLU=measured Fluorescence, AveLow=average Fluorescence of no enzyme control (n=32), and AveHigh=average Fluorescence of DMSO control (n=32). IC50 values were determined by curve fitting of the standard 4 parameter logistic fitting algorithm included in the Activity Base software package: IDBS XE Designer Model205. Data are fitted using the Levenburg Marquardt algorithm.
A word on the IC50: it is the concentration needed to halve the response being measured. For `N#CN1CC[C@@H]2CCN(c3ncc(C4CCCCC4)s3)C(=O)[C@H]2C1` (single isomer, unassigned) [1-12R,R], the IC50 was 0.1 to 1 µM. Next, `N#CN1CC[C@H]2CCN(c3ncc(C4CCCCC4)s3)C(=O)[C@H]2C1` (single isomer, unassigned) [1-12S,R]: 1 to 10 µM; `N#CN1CC[C@H]2CCN(c3ncc(C4CCCCC4)s3)C(=O)[C@@H]2C1` (single isomer, unassigned) [1-12S,S]: 1 to 10 µM. Next, `N#CN1CCN2CCN(c3ncc(N4CCCC[C@@H]4Cc4ccccc4)s3)C(=O)[C@H]2C1` (single isomer, unassigned) [1-118R,R]: 0.1 to 1 µM. Regarding `N#CN1CCN2CCN(c3ncc(N4CCCC[C@H]4Cc4ccccc4)s3)C(=O)[C@H]2C1` (single isomer, unassigned) [1-118R,S], the half-inhibitory concentration (IC50) is below 0.1 µM. As to `N#CN1CCN2CCN(c3ncc(N4CCCC[C@@H]4Cc4ccccc4)s3)C(=O)[C@@H]2C1` (single isomer, unassigned) [1-118S,R], the IC50 fell in the range of 0.1 to 1 µM. With `N#CN1CCN2CCN(c3ncc(N4CCCC[C@H]4Cc4ccccc4)s3)C(=O)[C@@H]2C1` (single isomer, unassigned) [1-118S,S], the half-maximal inhibitory concentration (IC50) was 0.1 to 1 µM.

With `N#CN1CC[C@@H]2CCN(c3ncc(C4CCCCC4)s3)C[C@@H]2C1` (single isomer, unassigned) [4-1R,S], the IC50 is 1 to 10 µM. As for `N#CN1CC[C@H]2CCN(c3ncc(C4CCCCC4)s3)C[C@H]2C1` (single isomer, unassigned) [4-1S,R], the IC50 was 1 to 10 µM. With `N#CN1CC[C@H]2CN(c3ncc(C4CCCCC4)s3)C(=O)[C@H]2C1` (single isomer, unassigned) [5-1R,R], the IC50 was in the range of 10 to 25 µM. Next, `N#CN1CC[C@@H]2CN(c3ncc(C4CCCCC4)s3)C(=O)[C@@H]2C1` (single isomer, unassigned) [5-1S,S]: 1 to 10 µM. Consider `N#Cc1cccc(-c2cnc(N3C[C@H]4CN(C#N)CC[C@H]4C3)nc2)c1` (single isomer, unassigned) [5-2R,R], for which the IC50 is above 25 µM. Next, `N#Cc1cccc(-c2cnc(N3C[C@H]4CCN(C#N)C[C@H]4C3)nc2)c1` (single isomer, unassigned) [5-2S,S]: 10 to 25 µM. With `N#CN1CCN2CCN(c3ncc(C4CCCCC4)s3)C(=O)[C@H]2C1` (single isomer, unassigned) [Compound 1-1R], the IC50 was below 0.1 µM. On to `N#CN1CCN2CCN(c3ncc(C4CCCCC4)s3)C(=O)[C@@H]2C1` (single isomer, unassigned) [Compound 1-1S], for which the IC50 lay within 0.1 to 1 µM. For `CC(C)(C)c1sc(N2CCN3CCN(C#N)C[C@@H]3C2=O)nc1Cl` (single isomer, unassigned) [Compound 1-2R], the IC50 was below 0.1 µM.

Consider `CC(C)(C)c1sc(N2CCN3CCN(C#N)C[C@H]3C2=O)nc1Cl` (single isomer, unassigned) [Compound 1-2S], for which the half-maximal inhibitory concentration (IC50) is below 0.1 µM. Take `N#CN1CCN2CCN(c3nc(Cl)c(C4CCCCC4)s3)C(=O)[C@H]2C1` (single isomer, unassigned) [Compound 1-3R]: the half-inhibitory concentration (IC50) was below 0.1 µM. Next, `N#CN1CCN2CCN(c3nc(Cl)c(C4CCCCC4)s3)C(=O)[C@@H]2C1` (single isomer, unassigned) [Compound 1-3S]: below 0.1 µM. Turning to `N#Cc1cccc(-c2cnc(N3CCN4CCN(C#N)C[C@@H]4C3=O)nc2)c1` (single isomer, unassigned) [Compound 1-4R], the concentration for half-maximal inhibition (IC50) was 1 to 10 µM.

As to `N#Cc1cccc(-c2cnc(N3CCN4CCN(C#N)C[C@H]4C3=O)nc2)c1` (single isomer, unassigned) [Compound 1-4S], the IC50 is 1 to 10 µM. Next, `N#CN1CCN2CCN(c3ncc(-c4cccc(Cl)c4)cn3)C(=O)[C@H]2C1` (single isomer, unassigned) [Compound 1-5R]: 1 to 10 µM; `N#CN1CCN2CCN(c3ncc(-c4cccc(Cl)c4)cn3)C(=O)[C@@H]2C1` (single isomer, unassigned) [Compound 1-5S]: 1 to 10 µM. Regarding `N#Cc1cccc(-c2cnc(N3CCN4CCN(C#N)C[C@@H]4C3=O)s2)c1` (single isomer, unassigned) [Compound 1-6R], the 50% inhibitory concentration (IC50) was below 0.1 µM.

For `N#Cc1cccc(-c2cnc(N3CCN4CCN(C#N)C[C@H]4C3=O)s2)c1` (single isomer, unassigned) [Compound 1-6S], the IC50 was below 0.1 µM. As for `N#CN1CCN2CCN(c3ncc(-c4cccc(Cl)c4)s3)C(=O)[C@H]2C1` (single isomer, unassigned) [Compound 1-7R], the IC50 was below 0.1 µM. As to `N#CN1CCN2CCN(c3ncc(-c4cccc(Cl)c4)s3)C(=O)[C@@H]2C1` (single isomer, unassigned) [Compound 1-7S], the IC50 was below 0.1 µM. For the compound `N#CN1CCN2CCN(c3cc(-c4cccc(Cl)c4)on3)C(=O)[C@H]2C1` (single isomer, unassigned) [Compound 1-11R], the IC50 is above 25 µM.

For `N#CN1CCN2CCN(c3cc(-c4cccc(Cl)c4)on3)C(=O)[C@@H]2C1` (single isomer, unassigned) [Compound 1-11S], the IC50 was above 25 µM. For `N#CN1CCN2CCN(c3ncc(-c4ccccc4)s3)C(=O)[C@H]2C1` (single isomer, unassigned) [Compound 1-14R], the IC50 is below 0.1 µM. Next, `N#CN1CCN2CCN(c3ncc(-c4ccccc4)s3)C(=O)[C@@H]2C1` (single isomer, unassigned) [Compound 1-14S]: 0.1 to 1 µM. As to `CC(C)(C)c1cnc(N2CCN3CCN(C#N)C[C@]3(C)C2=O)s1` (single isomer, unassigned) [Compound 1-15R], the IC50 was 1 to 10 µM. For the compound `N#CN1CCN2CCN(c3cc(-c4ccccc4Oc4ccccc4)[nH]n3)C(=O)[C@H]2C1` (single isomer, unassigned) [Compound 1-114R], the IC50 lay in the range of 0.1 to 1 µM. For `N#CN1CCN2CCN(c3cc(-c4ccccc4Oc4ccccc4)[nH]n3)C(=O)[C@@H]2C1` (single isomer, unassigned) [Compound 1-114S], the IC50 fell in the range of 0.1 to 1 µM. For `N#CN1CCN2CCN(c3ncc(-c4cccc(CN5CCC5)c4)s3)C(=O)[C@H]2C1` (single isomer, unassigned) [Compound 1-115R], the IC50 fell in the range of 1 to 10 µM.

For `N#CN1CCN2CCN(c3ncc(-c4cccc(CN5CCC5)c4)s3)C(=O)[C@@H]2C1` (single isomer, unassigned) [Compound 1-115S], the IC50 lay within 1 to 10 µM. As to `CC(C)(C)c1sc(N2CCN3CCN(C#N)C[C@@]3(F)C2=O)nc1Cl` (single isomer, unassigned) [Compound 1-116R], the 50% inhibitory concentration (IC50) lay in the range of 1 to 10 µM. As to `CC(C)(C)c1sc(N2CCN3CCN(C#N)C[C@]3(F)C2=O)nc1Cl` (single isomer, unassigned) [Compound 1-116S], the IC50 fell in the range of 1 to 10 µM.

Consider `C[C@]12CN(C#N)CCN1CCN(c1ncc(C3CCCCC3)s1)C2=O` (single isomer, unassigned) [Compound 1-117R], for which the 50% inhibitory concentration (IC50) was below 0.1 µM.

In the case of `C[C@@]12CN(C#N)CCN1CCN(c1ncc(C3CCCCC3)s1)C2=O` (single isomer, unassigned) [Compound 1-117S], the IC50 was in the range of 1 to 10 µM.

In the case of `N#CN1CC(=O)N2CCN(c3ncc(C4CCCCC4)s3)C[C@H]2C1` (single isomer, unassigned) [Compound 3-1R], the IC50 was below 0.1 µM. For the compound `N#CN1CC(=O)N2CCN(c3ncc(C4CCCCC4)s3)C[C@@H]2C1` (single isomer, unassigned) [Compound 3-1S], the IC50 is 0.1 to 1 µM. For the compound `CC(C)(C)c1sc(N2CC(=O)N3CCN(C#N)C[C@@H]3C2=O)nc1Cl` (single isomer, unassigned) [Compound 6-1R], the IC50 was below 0.1 µM.

In the case of `CC(C)(C)c1sc(N2CC(=O)N3CCN(C#N)C[C@H]3C2=O)nc1Cl` (single isomer, unassigned) [Compound 6-1S], the IC50 was below 0.1 µM.

(Values after patent US12049466B2, “Fused bicyclic compounds useful as ubiquitin-specific peptidase 30 inhibitors” (FORMA Therapeutics, Inc., priority 2018, dated 2024).)
